From patent publication US10028955B2, “FGFR inhibitor for use in the treatment of hypophosphatemic disorders” (Novartis AG, priority 2012, dated 2018) come the findings set out here.

This assay relates to Hyp mice. The assay can be described thus: Serum 1,25(OH)2D3, calcium and phosphate after single oral dose in wild-type and Hyp mice. Type of assay: in vivo, mouse. The text has this: FGFR inhibitor treatment induces 1,25(OH)2D3 biosynthesis and alleviates hypocalcemia and hypophosphatemia in Hyp mice. Wild-type C57BL/6 and Hyp (B6.Cg-PhexHyp/J) mice were obtained from The Jackson Laboratory. Dmp1-null mice were generated by Feng et al. (J. Dent. Res. 2003; 82:776-780.). All mice were kept in cages under standard laboratory conditions. Mice were fed on a standard rodent diet with water ad libitum.
Wild-type or Hyp mice received a single oral dose of the FGFR inhibitor BGJ398 in its free base form (50 mg/kg) or vehicle and were studied 7 h after administration of the compound. BGJ398 or vehicle only (PEG-300/Glucose 5%, 2:1 mix) was administered by oral gavage. Mice were used at 5-7 weeks of age in the case of single dose administrations. Mice were anesthetized by isoflurane inhalation and blood was collected from the caval vein. Mice were sacrificed by exsanguination and kidney and tibial and femoral bones were obtained. Concentrations of BGJ398 in kidney at 7 h was also determined.
Serum was separated from whole blood using clot activator centrifugation tubes. 100 μl of serum were used for determination of phosphate and calcium levels using the VetScan diagnostic profiling system. Serum concentrations of 1,25(OH)2D3 were determined using a radio receptor assay kit. FGF23 serum levels were analyzed by an ELISA detecting intact FGF23 (Kainos).
At 24 h post-dosing, single dose treatment with BGJ398 induced elevated serum calcium and phosphate levels in both wild-type and Hyp mice, thus alleviating the severe hypocalcemia and hypophosphatemia observed in control Hyp mice. […] Data in FIGS. 1 A and B is shown as relative levels to the wild-type control group (relative expression of 100) and are given as average with standard errors of the mean (SEM) (n≥6).
Similarly to example 1, wild-type or Hyp mice received a single oral dose of the FGFR inhibitor BGJ398 or vehicle and were studied […] after administration of the compound. Calcium (FIG. 4A) and phosphate (FIG. 4B) levels were determined from serum. Data are shown as average with SEM (n≥3). Data were compared by unpaired Student's t test; * p<0.05; ** p<0.01; *** p<0.001; n. s.: not significant. (C) BGJ398 concentrations in kidney at 7 h and 24 h post-administration. Values are given as average with SEM (n≥5).

[1] abbreviates: Hyp mice, single oral dose 50 mg/kg, 24 h post-dosing.
The mark [2] stands for this setting: both wild-type and Hyp mice, single oral dose 50 mg/kg, 24 h post-dosing, 50 mg/kg.
[3] abbreviates: wild-type or Hyp mice, single oral dose, 48 h after administration.

“Also recorded” adds a separate entry of the source.

For `CCN1CCN(c2ccc(Nc3cc(N(C)C(=O)Nc4c(Cl)c(OC)cc(OC)c4Cl)ncn3)cc2)CC1` [BGJ398, 3-(2,6-Dichloro-3,5-dimethoxy-phenyl)-1-{6-[4-(4-ethyl-piperazin-1-yl)-phenylamino]-pyrimid-4-yl}-1-methyl-urea], under setting [1], the “serum calcium levels compared to vehicle-treated wild-type mice” value is listed as “indistinguishable from vehicle-treated wild-type mice” and the “serum phosphate concentrations compared to wild-type mice” value is given as “still significantly lower compared to serum levels of wild-type mice”. Also, the “1,25(OH)2D3 serum levels” value (both wild-type and Hyp mice, single oral dose 50 mg/kg, 7 h post-dosing) is on record as “strong increase”. Moreover, under setting [2], the serum calcium levels entry is given as “increased; also recorded: elevated” and the serum phosphate levels result was “increased; also recorded: elevated”. Under setting [3], the calcium serum levels result was “persistent increase” and the phosphate serum levels entry is “persistent increase”.
